The text below walks through data of patent US5776769A, “Cell-type specific methods and devices for the low temperature preservation of the cells of an animal species” (Methodist Hospital of Indiana, priority 1995, dated 1998).

Data set [1] concerns human sperm. The data set can be described thus: Sperm membrane integrity (dual staining, flow cytometry) after glycerol addition and removal. Conditions: in 1M glycerol or after addition and removal of 1M glycerol by the different procedures. Format: cell-based. From the text: One preferred procedure to assess cell viability utilizes dual flourescent staining and flow cytometric analysis as disclosed by Garner in Assessment of Spermatozoal Function Using Dual Fluorescent Staining and Flow Cytometric Analysis, Biol. Reprod. 34, 127-138, 1986, which is hereby incorporated into this specification by reference. Propidium iodide (PI) is a bright red, nucleic acid-specific fluorophore available from the Sigma Chemical Co. PI permeates poorly into sperm cells with intact plasma membranes, however, it readily diffuses into sperm having damaged membranes and stains the DNA red. […]
Plasma membrane integrity was analyzed by placing five μl of CFDA (suspended in 0.25 mg/ml of DMSO) and 5 μl of PI (suspended in 1 mg/ml H2 O) solutions into 0.5 ml of a particular sperm suspension. […] A total of 1×10^5 spermatozoa per treatment were analyzed using a FACSTAR PLUS™ flow cytometer.
TL-HEPES medium with 2M glycerol was either one-step or stepwise added to an equal volume of the isotonic sperm suspension to achieve a final 1M glycerol concentration at 22° C. […] Sperm motility before, during, and after the different glycerol addition and removal procedures was measured by CASA. The membrane integrity of the sperm was determined by the dual staining technique and flow cytometry.

The test system of data set [2] is human spermatozoa. As to conditions: cited from earlier work.
Data set [3] relates to human sperm cells. Briefly: Glycerol removal with porous-membrane diffusion device. Format: cell-based. From the text: A cell suspension with cryoprotectants is placed in the chamber (region 2) with an internal space/thickness of L. Two walls of the chamber are the porous membranes (regions 1 and 3) with special characteristics (e.g. membrane thickness: 150 μm, pore size: 0.22 to 0.65 μm in diameter, pore area: 70% of the total membrane surface area). For removing CPAs, isotonic cell culture medium without CPAs are continuously pumped and run through compartments (4 and 5) to quickly remove CPAs diffusing from the chamber (region 2) through the porous membrane. Meanwhile, the isotonic medium diffuses into the chamber to dilute the CPA concentration in the cell suspension. Because the porous membrane used is a nonselective membrane (pore size […]), CPAs and other solutes and solvents (water) diffuse freely across the […] with a constant cell suspension volume in the chamber. The pore size of the porous membrane, the thickness of the cell chamber, the diffusibility of CPA in the solution, the permeability coefficients of the cell membrane to water and CPA are control factors used in the design of the system. Basic assumptions and mathematical formulation describing the CPA diffusion across the porous membrane and the change of CPA concentration distribution in the chamber (i.e., the extracellular environment) are as follows:
A corresponding computer program using a finite difference method to calculate the above equations is used to simulate the mass transfer process in the system. The values of f, L2, Cf, Ci, L1, D1, D2 and hD can be used as control factors or adjustable parameters in the computer simulation. […] Calculated kinetic changes of glycerol concentration (initial 1M) at the chamber position A (center, see FIG. 19) and B (internal surface of porous membrane, see FIG. 19) are shown in FIG. 21, and the corresponding cell volume changes are calculated and predicted to be below the cell tolerance limit (1.1 times isotonic sperm volume), as shown in FIG. 22.

In data set [4] the test system is human sperm. The data set can be described thus: Sperm motility (CASA) after glycerol addition and removal procedures. Format: cell-based. As to conditions: for sperm motility loss: final 1M glycerol, 22° C. The method, then: Sperm motility was measured by computer assisted semen analysis (CASA) using CELLSOFT™, version 3.2/C. CASA was performed before, during, and after the anisosmotic exposures of the sperm samples. All experiments were conducted at 22° C.
TL-HEPES medium with 2M glycerol was either one-step or stepwise added to an equal volume of the isotonic sperm suspension to achieve a final 1M glycerol concentration at 22° C. Glycerol in the sperm was removed by dilution either by a one-step or stepwise addition of the TL-HEPES medium with or without an osmotic buffer (sucrose) placed into the cell suspension. The detailed procedures for the glycerol addition and removal are described in Tables 2-5. Sperm motility before, during, and after the different glycerol addition and removal procedures was measured by CASA. The membrane integrity of the sperm was determined by the dual staining technique and flow cytometry.
The time interval between two steps was approximately 1-2 minutes. The volume of solution added in each step was calculated using Equations 5 or 6.
The final 90 μl of sperm suspension were further diluted by adding 180 μl of TALP solution for the CASA analysis. The time interval between two steps is approximately 1-2 minutes. The volume of diluent added in each step was calculated using Equations 7 or 8.
Add 2000 μl of isotonic solution directly to 100 μl of cell suspension with 1M glycerol.
(1) Add 2000 μl of sucrose buffer medium

In the case of `OCC(O)CO` [glycerol], the “membrane integrity of the human sperm” value in data set [1] was “appeared to maintain membrane integrity under all experimental conditions”. The “Glycerol permeability coefficient (PCPA)” value in data set [2] (22° C., human spermatozoa) is 18.3 ×10⁻⁶ cm/s. In addition, the “time for removal of over 95% of 1M glycerol” value in data set [3] was no more than 10 min. In addition, the “cell clumping, loss in motility or membrane integrity, or curling of sperm tails” value in data set [3] (1M glycerol removal within 10 minutes) is “without significant cell clumping, loss in motility or membrane integrity, or curling of sperm tails”. Also, in data set [3] (1M glycerol, within 10 minutes), the “glycerol removed from the human sperm cells” value is recorded as “over 95%”. In addition, in data set [4] (eight-step FMS removal of 1M glycerol), the “sperm that maintained motility” value is recorded as “over 92%”. The “sperm that lost motility” value in data set [4] (eight-step FVS removal of 1M glycerol) was “Thirty-five percent”. The sperm motility loss entry is “less than 8%” in data set [4] (four-step FMS addition) and “approximately 20%” in data set [4] (one step addition). Besides, the “motile sperm that kept motility” value in data set [4] (one-step removal of 1M glycerol) is on record as “Less than 30%”. The motility loss in data set [4] (two-step removal of 1M glycerol using sucrose as non-permeating buffer (600 mOsm)) is reported as roughly 45%.

`O` [Water, water]: the “Water permeability coefficient (Lp)” value in data set [2] (not told) is 2.16 um/minutes/atm.
